IC50 and Ki data for 17 compounds are collected here from US10131679B2, “Substituted dihydropyrrolopyrazole compound” (UBE INDUSTRIES, LTD., priority 2014, dated 2018).

Assay [1] relates to IL-2 production in human peripheral blood mononuclear cell (PBMC). Nature of the assay: Human PBMC CD3/CD28-induced IL-2 production inhibition test. It counts as cell-based. Conditions: 48 h, CD3/CD28 stimulation, incubation for 2 days, ELISA. The text has this:
Human Peripheral Blood Mononuclear Cell (PBMC) CD3/CD28-Induced IL-2 Production Inhibition Test
PBMC was separated and collected by using Ficoll-Paque (17-1440-02 manufactured by GE Healthcare Japan Corp.) from blood collected from healthy human adult in the presence of heparin. RPMI1640 medium (manufactured by GIBCO/Thermo Fisher Scientific, Inc., REF. 11875) containing 10% FBS (manufactured by GIBCO/Thermo Fisher Scientific, Inc. REF. 10082) and containing a test compound dissolved in DMSO and 2 μg/mL anti-hCD28 (manufactured by R&D Systems, Inc., Cat. No. MAB342) was added at 100 μL/well to T cell Activation Plate Anti-Human CD3 96-well plate (manufactured by Corning Inc., REF. 354725), and subsequently, a PBMC suspension adjusted such that the number of cells was 2×10^6 cells/mL was added at 100 μL/well (final DMSO concentration: 0.1%). A RPMI1640 medium containing 10% FBS and containing 0.1% DMSO and 2 μg/mL anti-hCD28 was similarly added to wells not supplemented with the test compound. After incubation for 2 days in a carbon dioxide incubator, the culture supernatant was collected. The collected culture supernatant was stored at −20° C. until IL-2 content measurement.
In the measurement of IL-2 content in the culture supernatant, a sandwich ELISA kit Quantikine Human IL-2 (manufactured by R&D Systems, Inc., Cat. No. S2050) was used. The IL-2 content of each sample was calculated from the calibration curve of Standard IL-2 included in the kit. When the amount of IL-2 produced by CD3/CD28 stimulation in the case of the addition of only DMSO was defined as 100%, the rate of inhibition of IL-2 production at each concentration of the test compound was calculated. A test compound concentration inhibiting 50% of IL-2 production was calculated as an IC50 value (nM) from the concentration of the added test compound and the rate of inhibition of IL-2 production by the test compound by using EXSUS (version 8.0.0 or version 8.0.1, manufactured by CAC Exicare Corp.).

Assay [2] concerns the target T1, CDK7 (Homo sapiens, UniProt P50613).
T1 construct: purchased Carna Biosciences, Inc. 04-108
Nature of the assay: CDK7 enzyme inhibition test. It counts as biochemical. Conditions: Ki=IC50/(1+S/Km); 33P bound to MBP, [γ-33P]ATP, 30° C. for 20 minutes; read-out: Ki value of CDK7 inhibitory activity. The method in brief:
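Recombinant CDK7 with MBP substrate and [γ-33P]ATP (500 μM solution, diluted into the mix) in HEPES pH 7.4/DTT/Triton X-100/MgCl2, 20 min at 30 °C. TCA-precipitated 33P-MBP counted by scintillation; IC50 from inhibition, Ki = IC50/(1+S/Km).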

Assay [3] deals with T2, CDK2 (Homo sapiens, UniProt P24941).
T2 construct: purchased Invitrogen Corp. PV3267
The experiment in a line: CDK2 enzyme inhibition test. The class given is biochemical. The conditions noted are these: Ki=IC50/(1+S/Km); 33P bound to MBP, [γ-33P]ATP, 30° C. for 20 minutes; read-out: Ki value of CDK2 inhibitory activity. The method, boiled down: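 Commercial CDK2 with MBP substrate and [γ-33P]ATP (500 μM solution, before mixing) in HEPES pH 7.4 buffer with DTT, Triton X-100 and MgCl2; 20 min at 30 °C. TCA-precipitated 33P-MBP counted by liquid scintillation; IC50 from inhibition of 33P incorporation, Ki = IC50/(1+S/Km).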

T1 sequence (P50613 whole entry): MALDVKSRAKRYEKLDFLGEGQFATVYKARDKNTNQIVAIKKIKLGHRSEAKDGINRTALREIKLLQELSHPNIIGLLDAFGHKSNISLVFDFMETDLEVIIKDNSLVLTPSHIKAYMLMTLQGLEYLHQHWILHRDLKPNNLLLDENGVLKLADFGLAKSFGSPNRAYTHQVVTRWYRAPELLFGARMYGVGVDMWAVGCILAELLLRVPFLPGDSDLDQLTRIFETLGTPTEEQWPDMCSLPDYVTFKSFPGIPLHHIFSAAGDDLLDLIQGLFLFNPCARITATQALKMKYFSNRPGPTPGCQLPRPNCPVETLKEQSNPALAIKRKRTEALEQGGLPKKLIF
T1 sequence (P51946 whole entry partner): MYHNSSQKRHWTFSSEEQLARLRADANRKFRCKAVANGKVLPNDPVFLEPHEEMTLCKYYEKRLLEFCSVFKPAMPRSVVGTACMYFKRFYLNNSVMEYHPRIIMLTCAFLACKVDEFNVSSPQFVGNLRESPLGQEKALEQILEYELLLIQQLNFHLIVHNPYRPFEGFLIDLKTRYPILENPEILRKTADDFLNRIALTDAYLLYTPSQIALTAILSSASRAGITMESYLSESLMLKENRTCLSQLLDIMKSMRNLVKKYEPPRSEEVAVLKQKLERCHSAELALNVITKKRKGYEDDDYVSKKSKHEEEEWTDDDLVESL
T1 sequence (P51948 whole entry partner): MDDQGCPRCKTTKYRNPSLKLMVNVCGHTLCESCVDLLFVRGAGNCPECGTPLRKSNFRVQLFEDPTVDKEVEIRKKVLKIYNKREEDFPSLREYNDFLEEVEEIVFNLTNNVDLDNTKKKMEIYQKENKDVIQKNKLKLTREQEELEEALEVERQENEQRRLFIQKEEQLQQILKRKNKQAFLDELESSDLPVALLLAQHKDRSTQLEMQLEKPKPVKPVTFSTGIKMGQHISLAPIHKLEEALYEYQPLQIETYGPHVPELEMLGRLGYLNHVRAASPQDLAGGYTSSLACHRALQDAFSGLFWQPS

A word on the IC50: it is the concentration that inhibits the measured activity by half. `CC(C)(CO)C(NC(=O)N1Cc2c(NC(=O)C3([Si](C)(C)C)CCC3)n[nH]c2C1(C)C)c1ccccc1` (racemic) [IV-354, N-(3-Hydroxy-2,2-dimethyl-1-phenylpropyl)-6,6-dimethyl-3-[1-(trimethylsilyl)cyclobutanecarboxamido]-4,6-dihydropyrrolo[3,4-c]pyrazole-5(1H)-carboxamide]: the IC50 in assay [1] is not above 50 nM.

Broadly, the Ki is the dissociation constant of the complex between target and ligand, obtained from inhibition or displacement. `CC1(C)c2[nH]nc(NC(=O)C(C)(C)[Si](C)(C)C)c2CN1C(=O)N[C@H](CO)c1ccccc1` [II-114, (S)—N-(2-Hydroxy-1-phenylethyl)-6,6-dimethyl-3-[2-methyl-2-(trimethylsilyl)propanamido]-4,6-dihydropyrrolo[3,4-c]pyrazole-5(1H)-carboxamide] showed an IC50 in assay [1] not above 50 nM. For the same compound, the Ki in assay [2] is not above 50 nM; in assay [3] it was not below 1000 nM.

`CC1(C)c2[nH]nc(NC(=O)C3([Si](C)(C)C)CC3)c2CN1C(=O)N[C@H](CO)c1ccccc1` [III-114, (S)—N-(2-Hydroxy-1-phenylethyl)-6,6-dimethyl-3-[1-(trimethylsilyl)cyclopropanecarboxamido]-4,6-dihydropyrrolo[3,4-c]pyrazole-5(1H)-carboxamide] registered an IC50 in assay [1] not above 50 nM. Moreover, the results for the Ki in assay [2] and in assay [3] were not above 50 nM and not below 1000 nM, respectively.

In turn, `CC1(C)c2[nH]nc(NC(=O)C3([Si](C)(C)C)CCC3)c2CN1C(=O)N[C@H](CO)c1ccccc1` [IV-114, (S)—N-(2-Hydroxy-1-phenylethyl)-6,6-dimethyl-3-[1-(trimethylsilyl)cyclobutanecarboxamido]-4,6-dihydropyrrolo[3,4-c]pyrazole-5(1H)-carboxamide] showed an IC50 in assay [1] not above 50 nM. The Ki in assay [2] is not above 50 nM; in assay [3] it was not below 1000 nM.

As to `COC[C@@H](NC(=O)N1Cc2c(NC(=O)C3([Si](C)(C)C)CCC3)n[nH]c2C1(C)C)c1ccccc1` [IV-123, (S)—N-(2-Methoxy-1-phenylethyl)-6,6-dimethyl-3-[1-(trimethylsilyl)cyclobutanecarboxamido]-4,6-dihydropyrrolo[3,4-c]pyrazole-5(1H)-carboxamide], the IC50 in assay [1] was not above 50 nM. Also, the Ki in assay [2] was not above 50 nM; in assay [3], not below 1000 nM.

As for `CCOC[C@@H](NC(=O)N1Cc2c(NC(=O)C3([Si](C)(C)C)CCC3)n[nH]c2C1(C)C)c1ccccc1` [IV-139, (S)—N-(2-Ethoxy-1-phenylethyl)-6,6-dimethyl-3-[1-(trimethylsilyl)cyclobutanecarboxamido]-4,6-dihydropyrrolo[3,4-c]pyrazole-5(1H)-carboxamide], in assay [1], the IC50 was not above 50 nM. Moreover, the Ki in assay [2] was not above 50 nM.

As to `CC(C)(O)[C@@H](NC(=O)N1Cc2c(NC(=O)C3([Si](C)(C)C)CCC3)n[nH]c2C1(C)C)c1ccccc1` [IV-171, (S)—N-(2-Hydroxy-2-methyl-1-phenylpropyl)-6,6-dimethyl-3-[1-(trimethylsilyl)cyclobutanecarboxamido]-4,6-dihydropyrrolo[3,4-c]pyrazole-5(1H)-carboxamide], the half-maximal inhibitory concentration (IC50) in assay [1] was not above 50 nM. For the same compound, the Ki is not above 50 nM in assay [2] and not below 1000 nM in assay [3].

As for `CC1(C)c2[nH]nc(NC(=O)C3([Si](C)(C)C)CCC3)c2CN1C(=O)N[C@H](CCO)c1ccccc1` [IV-227, (R)—N-(3-Hydroxy-1-phenylpropyl)-6,6-dimethyl-3-[1-(trimethylsilyl)cyclobutanecarboxamido]-4,6-dihydropyrrolo[3,4-c]pyrazole-5(1H)-carboxamide], in assay [1], the IC50 is not above 50 nM. Also, the Ki in assay [2] is not above 50 nM; in assay [3], not below 1000 nM.

The compound `CC1(C)c2[nH]nc(NC(=O)C3([Si](C)(C)C)CCC3)c2CN1C(=O)N[C@H](CCCO)c1ccccc1` [IV-283, (R)—N-(4-Hydroxy-1-phenylbutyl)-6,6-dimethyl-3-[1-(trimethylsilyl)cyclobutanecarboxamido]-4,6-dihydropyrrolo[3,4-c]pyrazole-5(1H)-carboxamide] showed an IC50 in assay [1] not above 50 nM. Further, the figures for the Ki in assay [2] and in assay [3] were not above 50 nM and not below 1000 nM, respectively.

For the compound `CC(C)(O)C[C@@H](NC(=O)N1Cc2c(NC(=O)C3([Si](C)(C)C)CCC3)n[nH]c2C1(C)C)c1ccccc1` [IV-299, (R)—N-(3-Hydroxy-3-methyl-1-phenylbutyl)-6,6-dimethyl-3-[1-(trimethylsilyl)cyclobutanecarboxamido]-4,6-dihydropyrrolo[3,4-c]pyrazole-5(1H)-carboxamide], in assay [1], the IC50 was not above 50 nM. In addition, the Ki in assay [2] was not above 50 nM; in assay [3], not below 1000 nM.

In turn, `CC1(C)c2[nH]nc(NC(=O)C3([Si](C)(C)C)CCC3)c2CN1C(=O)NCC(O)c1ccccc1` (stereo not drawn) [IV-450, N-(2-Hydroxy-2-phenylethyl)-6,6-dimethyl-3-[1-(trimethylsilyl)cyclobutanecarboxamido]-4,6-dihydropyrrolo[3,4-c]pyrazole-5(1H)-carboxamide] had an IC50 in assay [1] not above 50 nM. The Ki was not above 50 nM in assay [2] and not below 1000 nM in assay [3].

Consider `CO[C@@H](C(=O)N1Cc2c(NC(=O)C3([Si](C)(C)C)CCC3)n[nH]c2C1(C)C)c1ccccc1` [IV-1175, (R)—N-[5-(2-Methoxy-2-phenylacetyl)-6,6-dimethyl-1,4,5,6-tetrahydropyrrolo[3,4-c]pyrazol-3-yl]-1-(trimethylsilyl)cyclobutanecarboxamide], for which the IC50 in assay [1] is not above 50 nM. Also, the Ki in assay [2] is not above 50 nM.

In assay [1], `CC[Si](C)(C)C1(C(=O)Nc2n[nH]c3c2CN(C(=O)[C@H](OC)c2ccccc2)C3(C)C)CCC1` [IV-1178, (R)-1-(Ethyldimethylsilyl)-N-[5-(2-methoxy-2-phenylacetyl)-6,6-dimethyl-1,4,5,6-tetrahydropyrrolo[3,4-c]pyrazol-3-yl] cyclobutanecarboxamide] returned an IC50 not above 50 nM. Also, the Ki in assay [2] was not above 50 nM.

On to `CC1(C)c2[nH]nc(NC(=O)C3([Si](C)(C)C)CCC3)c2CN1C(=O)[C@H](OC(F)F)c1ccccc1` [IV-1180, (R)—N-{5-[2-(Difluoromethoxy)-2-phenylacetyl]-6,6-dimethyl-1,4,5,6-tetrahydropyrrolo[3,4-c]pyrazol-3-yl}-1-(trimethylsilyl)cyclobutanecarboxamide], for which the 50% inhibitory concentration (IC50) in assay [1] was not above 50 nM. In addition, in assay [2], the Ki was not above 50 nM.

`CCO[C@@H](C(=O)N1Cc2c(NC(=O)C3([Si](C)(C)C)CCC3)n[nH]c2C1(C)C)c1ccccc1` [IV-1188, (R)—N-[5-(2-Ethoxy-2-phenylacetyl)-6,6-dimethyl-1,4,5,6-tetrahydropyrrolo[3,4-c]pyrazol-3-yl]-1-(trimethylsilyl)cyclobutanecarboxamide]: the IC50 in assay [1] is not above 50 nM. In assay [2], the Ki is not above 50 nM.

With `CCCO[C@@H](C(=O)N1Cc2c(NC(=O)C3([Si](C)(C)C)CCC3)n[nH]c2C1(C)C)c1ccccc1` [IV-1196, (R)—N-[6,6-Dimethyl-5-(2-phenyl-2-propoxyacetyl)-1,4,5,6-tetrahydropyrrolo[3,4-c]pyrazol-3-yl]-1-(trimethylsilyl)cyclobutanecarboxamide], the Ki is not above 50 nM in assay [2] and not below 1000 nM in assay [3].

For `CC(C)O[C@@H](C(=O)N1Cc2c(NC(=O)C3([Si](C)(C)C)CCC3)n[nH]c2C1(C)C)c1ccccc1` [IV-1204, (R)—N-[5-(2-Isopropoxy-2-phenylacetyl)-6,6-dimethyl-1,4,5,6-tetrahydropyrrolo[3,4-c]pyrazol-3-yl]-1-(trimethylsilyl)cyclobutanecarboxamide], the Ki is not above 50 nM in assay [2] and not below 1000 nM in assay [3].
